Experimental data from US20070082880A1 (priority 2005, published 2007).
pIC50: −log10 of the molar value.

Tests used:
PKCθ = PKCθ (Homo sapiens, UniProt Q04759); assay: PKCθ Scintiplate Assay; format: biochemical; conditions: average value when one or more samples were tested
Description: This assay detects the phosphorylation of a biotinylated substrate by kinase utilizing radiolabeled ATP (ATP γ P33). The enzyme is either recombinant full length PKCθ (Panvera, P2996) or the purified recombinant active kinase domain of full length PKCθ (amino acids 362-706). The substrate in this assay is a biotinylated peptide with a sequence of biotin-[…]-CONH2. The assay buffer is composed of 100 mM Hepes, pH7.5, 2 mM MgCl2, 20 mM β-glycerophosphate and 0.008% TritonX 100. A reaction mixture of ATP, ATP γ P33 (PerkinElmer), DTT, lipid activator, and the enzyme is prepared in the assay buffer and added to a 96 well polypropylene plate. The compound (diluted in DMSO in a separate 96-well polypropylene plate) is added to the reaction mixture and incubated at room temperature. Following the incubation, the peptide substrate is added to the reaction mixture to initiate the enzymatic reaction. The reaction is terminated with the addition of a stop solution (10 mM EDTA, 0.2% TritonX100, and 100 mM NaHPO4) and transferred from the assay plate to a washed streptavidin-coated 96 well scintiplate (PerkinElmer). The scintiplate is incubated at room temperature, washed in PBS with 0.1% TritonX 100, and counted in the 1450 Microbeta Trilux (Wallac, Version 2.60). Counts are recorded for each well as corrected counts per minute (CCPM). The counts are considered corrected because they are adjusted according to a P33 normalization protocol, which corrects for efficiency and background differences between the instrument detectors (software version 4.40.01).

[1] = biological target: T1, human PKCθ full length enzyme (Homo sapiens, UniProt Q04759); assay: PKCθ IMAP Assay; format: biochemical; conditions: average value when one or more samples were tested; ATP 6 uM, PKCθ 1 nM
T1 construct: human PKCθ full length enzyme (Panvera Catalog No. P2996); purchased Panvera P2996
Procedure, shortened: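 Full-length human PKCθ (1 nM final) with 6 uM ATP and 100 nM 5FAM-labelled peptide, 5% DMSO, 3.0 mM DTT in reaction buffer. 25 min at room temperature; IMAP bead binding 20 min, fluorescence polarization read. Compounds 2:1 serially diluted; no-ATP and no-enzyme wells as controls.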

Sequence of PKCθ (Q04759 362-706 limits assumed): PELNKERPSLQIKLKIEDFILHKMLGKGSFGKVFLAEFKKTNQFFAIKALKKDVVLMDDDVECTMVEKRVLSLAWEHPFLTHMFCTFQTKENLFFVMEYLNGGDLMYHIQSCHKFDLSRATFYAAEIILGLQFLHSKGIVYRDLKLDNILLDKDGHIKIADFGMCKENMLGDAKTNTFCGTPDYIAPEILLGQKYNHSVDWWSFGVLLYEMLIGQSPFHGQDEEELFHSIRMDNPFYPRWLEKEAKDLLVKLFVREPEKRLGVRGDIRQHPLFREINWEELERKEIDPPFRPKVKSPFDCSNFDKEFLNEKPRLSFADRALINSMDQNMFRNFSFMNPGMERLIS
T1 sequence (Q04759 whole entry): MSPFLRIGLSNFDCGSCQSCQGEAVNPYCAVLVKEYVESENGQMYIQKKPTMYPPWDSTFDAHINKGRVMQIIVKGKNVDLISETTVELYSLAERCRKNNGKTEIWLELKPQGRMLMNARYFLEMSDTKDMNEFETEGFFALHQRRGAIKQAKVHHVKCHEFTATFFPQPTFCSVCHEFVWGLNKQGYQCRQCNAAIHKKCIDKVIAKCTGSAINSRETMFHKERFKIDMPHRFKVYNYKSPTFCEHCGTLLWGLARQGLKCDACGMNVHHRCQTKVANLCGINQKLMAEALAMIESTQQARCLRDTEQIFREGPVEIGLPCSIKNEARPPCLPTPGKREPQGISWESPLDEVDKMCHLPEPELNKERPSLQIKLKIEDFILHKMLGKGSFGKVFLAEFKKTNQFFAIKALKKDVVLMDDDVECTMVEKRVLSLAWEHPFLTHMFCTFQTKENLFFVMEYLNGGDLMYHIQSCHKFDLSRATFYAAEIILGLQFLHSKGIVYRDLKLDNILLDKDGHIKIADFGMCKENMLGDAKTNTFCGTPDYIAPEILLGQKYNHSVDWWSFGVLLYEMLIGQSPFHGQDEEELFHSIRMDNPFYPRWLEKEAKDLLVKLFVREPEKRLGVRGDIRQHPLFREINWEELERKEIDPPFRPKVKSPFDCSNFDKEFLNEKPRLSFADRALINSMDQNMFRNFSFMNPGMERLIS

| pIC50 (PKCθ) | melting point [°C] | pIC50 [1] | SMILES |
| --- | --- | --- | --- |
| 7.29 | > 260 |  | N#Cc1cnc2sc(-c3ccc(C=O)cc3)cc2c1Nc1ccc2[nH]ccc2c1 [Compound 103, 2-(4-formylphenyl)-4-(1H-indol-5-ylamino)thieno[2,3-b]pyridine-5-carbonitrile] |
| < 3.82 | > 245 |  | N#Cc1cnc2sc(-c3ccccc3)cc2c1Nc1cccc2cc[nH]c12 [Compound 109, 4-(1H-indol-7-ylamino)-2-phenylthieno[2,3-b]pyridine-5-carbonitrile] |
| 6.92 | > 245 |  | N#Cc1cnc2sc(-c3ccccc3)cc2c1Nc1cccc2[nH]ccc12 [Compound 115, 4-(1H-indol-4-ylamino)-2-phenylthieno[2,3-b] pyridine-5-carbonitrile] |
| 5.52 | > 245 |  | N#Cc1cnc2sc(-c3ccccc3)cc2c1NCCc1c[nH]cn1 [Compound 127, 4-{[2-(1H-imidazol-4-yl)ethyl]amino}-2-phenylthieno[2,3-b]pyridine-5-carbonitrile] |
| 7.37 |  | 7.12 | CN(C)Cc1cccc(-c2cc3c(Nc4ccc5[nH]ccc5c4)c(C#N)cnc3s2)c1 [Compound 147, 2-{3-[(dimethylamino)methyl]phenyl}-4-(1H-indol-5-ylamino)thieno[2,3-b]pyridine-5-carbonitrile] |
| 7.22 |  | 7.14 | N#Cc1cnc2sc(-c3cccc(CN4CCN(CCO)CC4)c3)cc2c1Nc1ccc2[nH]ccc2c1 [Compound 148, 2-(3-{[4-(2-hydroxyethyl)piperazin-1-yl]methyl}phenyl)-4-(1H-indol-5-ylamino)thieno[2,3-b]pyridine-5-carbonitrile] |
| 7.89 |  | 7.52 | N#Cc1cnc2sc(-c3cccc(CNCCO)c3)cc2c1Nc1ccc2[nH]ccc2c1 [Compound 149, 2-(3-{[(2-hydroxyethyl)amino]methyl}phenyl)-4-(1H-indol-5-ylamino)thieno[2,3-b]pyridine-5-carbonitrile] |
| 7.39 |  | 6.80 | N#Cc1cnc2sc(-c3cccc(CN4CCN(CCN5CCOCC5)CC4)c3)cc2c1Nc1ccc2[nH]ccc2c1 [Compound 150, 4-(1H-indol-5-ylamino)-2-(3-{[4-(2-morpholin-4-ylethyl)piperazin-1-yl]methyl}phenyl)thieno[2,3-b]pyridine-5-carbonitrile] |
| 7.06 |  | 7.11 | N#Cc1cnc2sc(-c3cccc(CN(CCO)CCO)c3)cc2c1Nc1ccc2[nH]ccc2c1 [Compound 151, 2-(3-{[bis(2-hydroxyethyl)amino]methyl}phenyl)-4-(1H-indol-5-ylamino)thieno[2,3-b]pyridine-5-carbonitrile] |
| 6.54 |  | 5.80 | N#Cc1cnc2sc(-c3ccccc3CN3CCC(O)CC3)cc2c1Nc1ccc2[nH]ccc2c1 [Compound 186, 2-{2-[(4-hydroxypiperidin-1-yl)methyl]phenyl}-4-(1H-indol-5-ylamino)thieno [2,3-b]pyridine-5-carbonitrile] |
| 8.35 |  | 8.10 | Cc1c(Nc2c(C#N)cnc3sc(-c4cccc(CN(C)C)c4)cc23)ccc2[nH]ccc12 [Compound 187, 2-{3-[(dimethylamino)methyl]phenyl}-4-[(4-methyl-1H-indol-5-yl)amino]thieno[2,3-b]pyridine-5-carbonitrile] |
| 6.96 |  | 6.74 | CN(C)Cc1ccc(-c2cc3c(Nc4ccc5[nH]ccc5c4)c(C#N)cnc3s2)nc1 [Compound 204, 2-{5-[(dimethylamino)methyl]pyridin-2-yl}-4-(1H-indol-5-ylamino)thieno[2,3-b] pyridine-5-carbonitrile] |
| 7.30 |  | 7.00 | CN(C)Cc1nc(-c2cc3c(Nc4ccc5[nH]ccc5c4)c(C#N)cnc3s2)cs1 [Compound 208, 2-{2-[(dimethylamino)methyl]-1,3-thiazol-4-yl}-4-(1H-indol-5-ylamino)thieno[2,3-b]pyridine-5-carbonitrile] |
| 6.77 |  | 6.82 | CN(C)C(=O)c1cccc(-c2cc3c(Nc4ccc5[nH]ccc5c4)c(C#N)cnc3s2)n1 [Compound 209, 6-[5-cyano-4-(1H-indol-5-ylamino)thieno[2,3-b]pyridin-2-yl]-N,N-dimethylpyridine-2-carboxamide] |
| 7.47 |  | 7.09 | CN(C)Cc1ccc(-c2cc3c(Nc4ccc5[nH]ccc5c4)c(C#N)cnc3s2)s1 [Compound 211, 2-{5-[(dimethylamino)methyl]-2-thienyl}-4-(1H-indol-5-ylamino)thieno[2,3-b]pyridine-5-carbonitrile] |
| 7.12 |  | 6.54 | N#Cc1cnc2sc(C#Cc3ccccn3)cc2c1Nc1ccc2[nH]ccc2c1 [Compound 213, 4-(1H-indol-5-ylamino)-2-(pyridine-2-ylethynyl)thieno[2,3-b]pyridine-5-carbonitrile] |
| 7.80 |  | 6.72 | N#Cc1cnc2sc(C#Cc3cccnc3)cc2c1Nc1ccc2[nH]ccc2c1 [Compound 214, 4-(1H-indol-5-ylamino)-2-(pyridin-3-ylethynyl)thieno[2,3-b]pyridine-5-carbonitrile] |
| 7.05 |  | 6.49 | CN1CCN(Cc2cccc(C#Cc3cc4c(Nc5ccc6[nH]ccc6c5)c(C#N)cnc4s3)n2)CC1 [Compound 216, 4-(1H-indol-5-ylamino)-2-({6-[(4-methylpiperazin-1-yl)methyl]pyridin-2-yl}ethynyl)thieno[2,3-b]pyridine-5-carbonitrile] |
| 7.23 |  | 7.16 | CN(C)Cc1cccc(C#Cc2cc3c(Nc4ccc5[nH]ccc5c4)c(C#N)cnc3s2)n1 [Compound 217, 2-({6-[(dimethylamino)methyl]pyridin-2-yl}ethynyl)-4-(1H-indol-5-ylamino)thieno[2,3-b]pyridine-5-carbonitrile] |
| 7.47 |  | 7.28 | N#Cc1cnc2sc(C#Cc3cccnc3)cc2c1Nc1cccc2[nH]ccc12 [Compound 218, 4-(1H-indol-4-ylamino)-2-(pyridin-3-ylethynyl)thieno[2,3-b]pyridine-5-carbonitrile] |
| 6.77 |  | 6.82 | CN1CCN(CCC#Cc2cc3c(Nc4cccc5[nH]ccc45)c(C#N)cnc3s2)CC1 [Compound 222, 4-(1H-indol-4-ylamino)-2-[4-(4-methylpiperazin-1-yl)but-1-yn-1-yl]thieno[2,3-b]pyridine-5-carbonitrile] |
| 7.06 |  | 5.85 | CN(C)CC#Cc1cc2c(Nc3ccc4[nH]ccc4c3)c(C#N)cnc2s1 [Compound 223, 2-[3-(dimethylamino)prop-1-yn-1-yl]-4-(1H-indol-5-ylamino)thieno[2,3-b]pyridine-5-carbonitrile] |
| 6.66 |  | 6.36 | CCN(CC)CC#Cc1cc2c(Nc3ccc4[nH]ccc4c3)c(C#N)cnc2s1 [Compound 225, 2-[3-(diethylamino)prop-1-yn-1-yl]-4-(1H-indol-5-ylamino)thieno[2,3-b]pyridine-5-carbonitrile] |
| 7.12 |  | 6.24 | N#Cc1cnc2sc(C#Cc3ccncc3)cc2c1Nc1ccc2[nH]ccc2c1 [Compound 226, 4-(1H-indol-5-ylamino)-2-(pyridin-4-ylethynyl)thieno[2,3-b]pyridine-5-carbonitrile] |
| 6.82 |  | 6.54 | N#Cc1cnc2sc(C#Cc3cn[nH]c3)cc2c1Nc1ccc2[nH]ccc2c1 [Compound 227, 4-(1H-indol-5-ylamino)-2-(1H-pyrazol-4-ylethynyl)thieno[2,3-b]pyridine-5-carbonitrile] |
